Substitutions are numbered along the chain they refer to. Where two headings read alike, the source gives them in different places.
Experiments:
sigma 1 receptors = target: T1, sigma 1 receptors (Cavia porcellus, UniProt Q60492); assay: Displacement of tritiated-pentazocine from guinea-pig cerebral cortex; assay type: binding
T1 construct: displacement assay of tritiated-pentazocine from guinea-pig cerebral cortex; from tissue; host or cells: guinea-pig cerebral cortex
From the text: (§1) It was specifically designed to provide information not only on potential limitations of drug candidates, but also for off-target activity identification. […] In a further extension of this study, functional studies were done on most of these receptors.

M2-M5 mAChR subtypes = assay: Intracellular Ca2+ mobilization in cells stably transfected with M2-M5 mAChR subtypes; assay type: cell-based
From the text: To evaluate selectivity for a subtype of mAChR, in particular the M1 mAChR vs. M3 and MS mAChR, the assays were calibrated using ligands that have a combined activity, e.g. M1 agonistic and M3 antagonistic or M1 agonistic and MS antagonistic profiles, respectively. This can eliminate effects due to different receptor reserves in cell-based assays.

M1 mAChR [1] = target: T2, M1 mAChR (Homo sapiens, UniProt P11229); assay: High-throughput profiling, binding at 10 μM; set-up: expressed in transfected cells
T2 sequence (P11229 1-460): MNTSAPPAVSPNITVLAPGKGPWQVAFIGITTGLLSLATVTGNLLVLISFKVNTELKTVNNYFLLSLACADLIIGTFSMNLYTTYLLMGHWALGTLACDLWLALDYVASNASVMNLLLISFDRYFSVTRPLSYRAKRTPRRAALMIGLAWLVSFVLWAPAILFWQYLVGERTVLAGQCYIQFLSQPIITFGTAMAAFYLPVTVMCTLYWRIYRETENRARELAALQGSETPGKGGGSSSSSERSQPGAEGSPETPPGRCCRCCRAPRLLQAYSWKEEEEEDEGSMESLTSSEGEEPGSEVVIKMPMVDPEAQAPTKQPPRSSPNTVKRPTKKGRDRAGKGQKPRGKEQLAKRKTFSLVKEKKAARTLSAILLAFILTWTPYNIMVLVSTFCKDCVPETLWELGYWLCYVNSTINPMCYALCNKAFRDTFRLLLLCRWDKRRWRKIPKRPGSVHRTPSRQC
From the text: as §1

α-4β2 nicotinic receptor = α-4β2 nicotinic receptor (Homo sapiens, UniProt P17787+P43681); assay: Binding to α4β2 nicotinic receptor; details: 0.1 nM-10 μM
From the text: as §1

α7 nicotinic receptor = α7 nicotinic receptor (Homo sapiens, UniProt P36544); assay: Binding to α7 nicotinic receptor; details: 0.1 nM-10 μM
From the text: as §1

sigma 2 receptor = sigma 2 receptor (Homo sapiens, UniProt Q5BJF2); assay: Binding to sigma 2 receptor; details: 0.1 nM-10 μM
From the text: as §1

M1 mAChR [2] = target: T3, M1 mAChR (Rattus norvegicus, UniProt P08482); assay: biochemical
T3 sequence (P08482 1-460): T2 sequence (P11229 1-460) with A5V, T254S, P309S, R320K, A337G, I413V

PC12M1 cells = assay: Mitochondrial apoptosis pathway, Bax and Bcl-2 immunoreactivity in PC12M1 cells; set-up: Emax: dose or concentration left out as unconfirmed
Procedure: These cells were partially differentiated (2-3 days), as observed under microscope. […] The pellet (rich mitochondrial fraction) was re-suspended with 200 μl Ripa buffer and lysed by rapid passage through a syringe needle (23G) for five to six times. The lysate was then used for further evaluation.
Bands were probed using the Rabbit Bax antibody (1:1000, Cell signaling, Cat. No. 2772) and Rabbit Bcl-2 antibody (1:1000, Cell signaling, Cat. No. 2870) followed by anti rabbit IgG (H&L) HRP (1:5,000, Jackson Immuno Research, 111-035-144).

M1 mAChR [3] = target: T2, M1 mAChR; assay: αAPPs secretion in CHO cells double transfected with human APP695 and human M1 mAChR; assay type: cell-based
Procedure: α-APPs Secretion studies following incubation with the tested compounds were performed as described in Haring, et al. J. Neurochem., 1998, 71:2094-103. […] A day later, cells were washed twice with serum free media, and treated with the test compound at various concentrations ranging from 0.1 nM to 100 μM. […] After 1 hour the conditioned medium was collected to cold Eppendorf tubes, which included a protease inhibitor cocktail (0.1 mM phenylmethylsulphonyl fluoride (PMSF); 5 μg/ml leupeptin; 5 μg/ml pepstatin and 5 units/ml aprotinin) for determining αAPPs release. The protein content of each sample was concentrated using Centricon tubes (Amicon, Beverly, Mass.). […] CHO cells double transfected with human APP695 and M1 mAChR APPs bands were probed using anti-amyloid beta protein (1:1000, monoclonal 6E10 antibody, MAB1560, Chemicon) and peroxidase-linked rabbit anti mouse IgG (1:5,000; Jackson Immuno Research, PA). PC12 cells stably transfected with M1 mAChR APPs bands were probed using the anti-Alzheimer precursor protein A4 (1:4,000; monoclonal 22C11 antibody, Boehringer Mannheim) and the peroxidase-linked rabbit anti mouse IgG (1:20,000; Jackson Immuno Research, PA). Following extensive washout, the membranes were treated with Western Lightning Chemiluminescence Reagent Plus (PerkinElmer Life Sciences, MA) followed by exposure to SuperRX film (Fuji Medical X-ray film, Tokyo, Japan). Quantitative determination of the total APPs bands was performed by Scion Image program (NIH, Bethesda, USA). Samples of control and CCh were assayed in parallel and thus enabled compilation of data from separate experiments.

T1 sequence (Q60492 whole entry): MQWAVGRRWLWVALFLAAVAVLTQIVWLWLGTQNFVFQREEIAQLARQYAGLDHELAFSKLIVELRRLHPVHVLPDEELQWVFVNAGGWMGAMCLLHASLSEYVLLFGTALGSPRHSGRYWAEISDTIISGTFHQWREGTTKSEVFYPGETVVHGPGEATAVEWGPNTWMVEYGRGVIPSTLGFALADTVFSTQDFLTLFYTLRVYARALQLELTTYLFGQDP
Chain of α-4β2 nicotinic receptor (P43681 29-627 limits assumed): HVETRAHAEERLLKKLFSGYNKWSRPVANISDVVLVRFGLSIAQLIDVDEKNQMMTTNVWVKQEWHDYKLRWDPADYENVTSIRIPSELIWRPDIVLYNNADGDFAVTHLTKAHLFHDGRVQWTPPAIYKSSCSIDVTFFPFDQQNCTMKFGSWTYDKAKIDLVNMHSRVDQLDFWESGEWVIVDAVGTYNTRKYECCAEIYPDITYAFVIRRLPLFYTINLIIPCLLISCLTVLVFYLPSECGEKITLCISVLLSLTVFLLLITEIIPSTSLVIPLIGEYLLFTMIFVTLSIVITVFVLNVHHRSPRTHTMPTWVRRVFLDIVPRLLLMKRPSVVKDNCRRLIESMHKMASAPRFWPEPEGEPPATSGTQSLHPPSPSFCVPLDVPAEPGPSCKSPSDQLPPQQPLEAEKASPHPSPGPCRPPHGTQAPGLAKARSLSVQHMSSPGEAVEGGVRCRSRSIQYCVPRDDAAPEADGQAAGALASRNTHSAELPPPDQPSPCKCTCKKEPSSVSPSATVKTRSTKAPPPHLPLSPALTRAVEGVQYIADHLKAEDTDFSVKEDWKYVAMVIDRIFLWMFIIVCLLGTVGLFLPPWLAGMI
Chain of α-4β2 nicotinic receptor (P17787 26-502): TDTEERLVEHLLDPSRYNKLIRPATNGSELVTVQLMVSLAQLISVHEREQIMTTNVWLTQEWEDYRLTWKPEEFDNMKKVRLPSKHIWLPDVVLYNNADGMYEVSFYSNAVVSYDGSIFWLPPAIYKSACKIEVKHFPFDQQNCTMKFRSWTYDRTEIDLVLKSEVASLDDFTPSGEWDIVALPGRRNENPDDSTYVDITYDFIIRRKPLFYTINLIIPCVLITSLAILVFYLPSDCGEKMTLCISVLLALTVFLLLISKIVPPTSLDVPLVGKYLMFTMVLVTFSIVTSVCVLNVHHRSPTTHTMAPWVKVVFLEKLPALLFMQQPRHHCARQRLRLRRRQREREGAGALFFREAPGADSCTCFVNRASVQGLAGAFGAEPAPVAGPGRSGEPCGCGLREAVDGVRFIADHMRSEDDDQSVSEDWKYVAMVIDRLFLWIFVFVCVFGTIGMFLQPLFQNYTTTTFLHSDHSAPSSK
Chain of α7 nicotinic receptor (P36544 23-502): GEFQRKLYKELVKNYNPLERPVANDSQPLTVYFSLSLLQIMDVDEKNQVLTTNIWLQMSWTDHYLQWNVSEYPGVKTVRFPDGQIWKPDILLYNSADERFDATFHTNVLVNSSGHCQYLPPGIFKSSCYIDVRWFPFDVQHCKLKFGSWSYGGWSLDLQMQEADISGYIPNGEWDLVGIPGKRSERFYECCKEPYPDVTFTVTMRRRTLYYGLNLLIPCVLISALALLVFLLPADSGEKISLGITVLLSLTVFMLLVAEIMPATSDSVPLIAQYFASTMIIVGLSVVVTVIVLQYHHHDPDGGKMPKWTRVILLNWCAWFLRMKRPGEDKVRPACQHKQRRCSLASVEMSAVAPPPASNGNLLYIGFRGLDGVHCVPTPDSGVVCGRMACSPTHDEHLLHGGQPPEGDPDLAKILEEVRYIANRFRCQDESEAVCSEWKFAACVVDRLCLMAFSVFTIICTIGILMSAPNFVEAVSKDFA
Chain of sigma 2 receptor (Q5BJF2 whole entry, species assumed): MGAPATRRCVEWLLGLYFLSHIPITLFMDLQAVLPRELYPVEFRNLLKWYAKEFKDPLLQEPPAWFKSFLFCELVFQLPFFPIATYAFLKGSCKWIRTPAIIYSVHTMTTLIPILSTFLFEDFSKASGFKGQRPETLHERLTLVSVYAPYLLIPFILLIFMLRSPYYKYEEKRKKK

C[C@@H]1SC2(CCN(C)CC2)CN1C(=O)CCc1c[nH]c2ccccc12 (single isomer, unassigned) [AF710B]
Ki (sigma 1 receptors; read-out: sigma 1 receptors KH): 1.4 nM
Ki (sigma 1 receptors; read-out: sigma 1 receptors KL): 248 nM
agonistic activity on the M2-M5 mAChR subtypes (M2-M5 mAChR subtypes): did not show detectable agonistic activity
binding to M1 mAChR (M1 mAChR [1]): binds
binding to α-4β2 nicotinic receptor (α-4β2 nicotinic receptor): does not bind
binding to α7 nicotinic receptor (α7 nicotinic receptor): does not bind
binding to sigma 2 receptor (sigma 2 receptor): does not bind
Ki (M1 mAChR [2]): 0.046 nM
Ki (M1 mAChR [2]; KH, brucine experiment, without brucine): 0.015 nM
Ki (M1 mAChR [2]; KH, with brucine 0.1 mM): 0.034 nM
Ki (M1 mAChR [2]; KL, brucine experiment, without brucine): 34000 nM
Ki (M1 mAChR [2]; KL, with brucine 0.1 mM): 15000 nM
Bax elevation after NGF deprivation (PC12M1 cells; PC12M1 cells): attenuated Bax elevation
Bcl-2, maximum effect (PC12M1 cells; PC12M1 cells, Aβ 25-35, 1 nM): 164±32% of control
Emax (PC12M1 cells; Rattus norvegicus, read-out: Aβ 25-35 induced neurotoxicity expressed as Bax/Bcl2, maximum effect): 18%
release of αAPPs (M1 mAChR [3]; CHO cells, 0.1 nM to 1 μM): enhanced the release of αAPPs
maximal αAPPs secretion in comparison to untreated control cells (M1 mAChR [3]; doubly-transfected CHO cells, AF710B at 0.01 μM, AF710 at 0.1 μM, AF710A at 1 μM): 225%

— US9034891B2, “Bicyclic heterocyclic spiro compounds” (ISRAEL INSTITUTE FOR BIOLOGICAL RESEARCH, priority 2009, dated 2015)
